Experimental data published in publication PMC9311539, “Antibacterial Activity against Clinical Isolates and In Vivo Efficacy of Coralmycins” (Antibiotics, 2022).
In brackets after ≈: the same amount, converted by molar mass. Read-outs that look alike come from different tables or passages of the source.

Tests used:
E. coli ATCC 25922 [1] = test system: E. coli ATCC 25922; set-up: method as in PMID 34123255; conditions: cited from earlier work
[2] = set-up: method as in PMID 34123255; conditions: cited from earlier work
E. coli ATCC 25922 [3] = test system: E. coli ATCC 25922; set-up: method as in PMID 34123255; conditions: 37.5 mg/kg/day; cited from earlier work
S. pneumoniae ATCC49619 [4] = assay: Neutropenic mouse respiratory tract infection model; format: in vivo, female ICR mice
Experimental: (§1) For the respiratory tract infection model, neutropenic mice were anesthetized and intranasally inoculated with a 50 μL suspension of S. pneumoniae ATCC49619 (4.4 × 10^8 CFU/mL). For the thigh infection model, the neutropenic mice were administered an intramuscular injection of a 100 μL suspension of S. aureus Giorgio (1 × 10^6 CFU/mL) into both thighs. For both models, four mice were included in each group. At 2 h after infection, two mice were sacrificed, and the infected thighs or lungs (n = 4) were excised to determine the initial bacterial levels. […] At 24 h after infection, the mice were sacrificed by cervical dislocation; their thighs or lungs were removed, homogenized, serially diluted with saline, and plated onto MHA to count the number of bacteria remaining. The number of viable bacterial cells (CFU) in the thighs or lungs of vehicle- and drug-treated mice was determined.

S. pneumoniae ATCC49619 [5] = assay: MIC against S. pneumoniae ATCC49619; format: cell-based; conditions: Streptococcus pneumoniae, ATCC49619; read-out: MIC
Experimental: (§2) The MICs of the antimicrobial agents were determined by a twofold microdilution broth method, as described by the Clinical and Laboratory Standards Institute. Briefly, test organisms were grown on Mueller–Hinton agar (MHA, BD Difco, Sparks, MD, USA) plates, subcultured into cation-adjusted Mueller–Hinton broth (CAMHB, BD Difco, Sparks, MD, USA), and incubated for 18 h at 35 °C. For S. pneumoniae culture, 5% sheep blood (Hanil Comed, Seongnam, Korea) was added. The cultured bacteria were diluted using phosphate-buffered saline (PBS) to achieve a bacterial cell density of approximately 5 × 10^6 CFU/mL. All test organisms were loaded into 96-well plates containing serial dilutions of the antimicrobial agents to achieve a concentration of 5 × 10^4 CFU/well. The plates were incubated at 35 °C for 18–20 h and examined for bacterial growth.

VRE = assay: MIC, broth microdilution, clinical isolates: VRE; format: cell-based, vancomycin-resistant Enterococcus; conditions: Enterococcus, VRE, 46 clinical isolates
Method in brief: (§3)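 Organisms were grown on Mueller–Hinton agar, then subcultured in cation-adjusted broth for 18 h at 35 °C, supplemented with 5% sheep blood for S. pneumoniae. Diluted cells were added to serial twofold dilutions at 5 × 10^4 CFU/well and incubated 18–20 h at 35 °C before checking for growth.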

[6] = test system: Vancomycin-sensitive E. faecalis; assay: MIC, broth microdilution, clinical isolates: vancomycin-sensitive E. faecalis; format: cell-based, Enterococcus faecalis; conditions: Enterococcus faecalis, 32 clinical isolates
Method in brief: as §3

MSSA = assay: MIC, broth microdilution, clinical isolates: MSSA; format: cell-based; conditions: Staphylococcus aureus, 26 clinical isolates
Method in brief: as §3

[7] = test system: Vancomycin-sensitive E. faecium; assay: MIC, broth microdilution, clinical isolates: vancomycin-sensitive E. faecium; format: cell-based, Enterococcus faecium; conditions: Enterococcus faecium, 32 clinical isolates
Method in brief: as §3

MRSA = assay: MIC, broth microdilution, clinical isolates: MRSA; format: cell-based, Staphylococcus aureus
Method in brief: as §3

[8] = test system: CNS (coagulase-negative staphylococci); assay: MIC, broth microdilution, clinical isolates: CNS; format: cell-based; conditions: 31 clinical isolates
Method in brief: as §3

MRSA CCARM 3167 [9] = assay: Time-kill assay, MRSA CCARM 3167; format: cell-based, Staphylococcus aureus
Method in brief: (§4)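 Inocula of 10^5 CFU/mL in CAMHB (plus 5% sheep blood for S. pneumoniae), preincubated 2 h, then sampled at 0, 2, 4, 6 and 24 h; viable counts on drug-free MHA after 20 h. Bactericidal means a 3 log CFU/mL (99.9%) drop from the inoculum; bacteriostatic means a 0–3 log drop.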

S. pneumoniae = assay: MIC, broth microdilution, clinical isolates: S. pneumoniae; format: cell-based, Streptococcus pneumoniae; conditions: Streptococcus pneumoniae, 27 clinical isolates
Method in brief: as §3

S. aureus Giorgio [10] = assay: Time-kill assay, S. aureus Giorgio; format: cell-based, Staphylococcus aureus
Method in brief: as §4

MRSA CCARM 3167 [11] = assay: MIC against MRSA CCARM 3167; format: cell-based; conditions: Staphylococcus aureus; read-out: MIC
Experimental: as §2

S. aureus Giorgio [12] = assay: MIC against S. aureus Giorgio; format: cell-based, Staphylococcus aureus; conditions: Staphylococcus aureus; read-out: MIC
Experimental: as §2

S. pneumoniae ATCC49619 [13] = assay: Time-kill assay, S. pneumoniae ATCC49619; format: cell-based, Streptococcus pneumoniae
Method in brief: as §4

VRE 3 [14] = assay: MIC against VRE 3; format: cell-based, vancomycin-resistant Enterococcus; conditions: Enterococcus, read-out: MIC
Experimental: as §2

S. aureus Giorgio [15] = assay: Neutropenic mouse thigh infection model; format: in vivo, female ICR mice
Experimental: as §1

VRE 3 [16] = assay: Time-kill assay, VRE 3; format: cell-based, vancomycin-resistant Enterococcus
Experimental: Time-kill analysis was performed by the NCCLS M26-A method. The test organisms (S. aureus Giorgio, S. pneumoniae ATCC49619, MRSA CCARM 3167, and VRE 3) incubated in CAMHB for 18 h at 35 °C were diluted to 10^5 CFU/mL with fresh CAMHB, and the diluted cultures were preincubated for 2 h. For S. pneumoniae culture, 5% sheep blood (Hanil Comed, Seongnam, Korea) was added. […] Culture aliquots (0.1 mL) were removed after 0, 2, 4, 6 and 24 h of incubation, and serial 10-fold dilutions were prepared in saline as needed. The numbers of viable cells were determined on drug-free MHA plates after 20 h of incubation. A compound was considered bactericidal if the original inoculum was reduced by 3 log CFU/mL (99.9%) at each concentration or was considered bacteriostatic if the inoculum was reduced by 0–3 log CFU/mL.

in vivo = conditions: female, ICR, mouse, plasma

CC(C)Oc1c(NC(=O)c2ccc(NC(=O)C(CC(N)=O)NC(=O)c3ccc(NC(=O)c4ccc(C#N)cc4)cc3)cc2)ccc(C(=O)Nc2ccc(C(=O)O)cc2)c1O (centres unmarked) [CN-DM-861]
MIC (E. coli ATCC 25922 [1]): 0.02 µg/mL (≈ 0.0246 µM) | detection in tissues (thigh, kidney, lung) ([2]; after s.c. administration): well detected | AUC ([2]; i.v. 5 mg/kg): approximately 2 μg·h/mL | T1/2 ([2]; i.v. 5 mg/kg): approximately 1 h | Vdss ([2]; i.v. 5 mg/kg): 3.5 L/kg | bioavailability ([2]; reported): 25% | AUC/MIC ratio ([2]; s.c. 5 mg/kg, MIC against E. coli ATCC 25922): 159.5 | AUC ([2]; s.c. 5 mg/kg): 517 ng·h/mL | Cmax ([2]; s.c. 5 mg/kg): 128 ng/mL | Tmax ([2]; s.c. 5 mg/kg): 1.7 h | in vivo effect in three mouse models (E. coli ATCC 25922 [3]): potent bactericidal effects

CO[C@@H](C(N)=O)[C@H](NC(=O)c1ccc(NC(=O)c2ccc([N+](=O)[O-])cc2)cc1)C(=O)Nc1ccc(C(=O)Nc2ccc(C(=O)Nc3ccc(C(=O)O)cc3OC(C)C)c(O)c2OC(C)C)cc1 [DH-coralmycin A]
in vivo effect (bacteriostatic or bactericidal) (S. pneumoniae ATCC49619 [4]; 4 mg/kg bid s.c.): static effect | in vivo effect (bacteriostatic or bactericidal) (S. pneumoniae ATCC49619 [4]; 20 mg/kg bid s.c.): static effect | in vivo effect (bacteriostatic or bactericidal) (S. pneumoniae ATCC49619 [4]; 100 mg/kg bid s.c.): bactericidal effects | antibacterial effect in respiratory tract infection model (S. pneumoniae ATCC49619 [4]; first experiment, s.c. 4 and 20 mg/kg at 3 and 6 h after infection): significant antibacterial effects | reduction of the starting bacterial burden compared to the 2-h control group (S. pneumoniae ATCC49619 [4]; second trial, s.c. 100 mg/kg bid): 0.96 log10 CFU/lung | MIC (S. pneumoniae ATCC49619 [5]): 0.25 µg/mL (≈ 0.272 µM) | MIC50 (VRE; read-out: MIC50): 4 µg/mL (≈ 4.35 µM) | MIC90 (VRE; read-out: MIC90): 16 µg/mL (≈ 17.4 µM) | MIC50 ([6]; read-out: MIC50): 2 µg/mL (≈ 2.17 µM) | MIC90 ([6]; read-out: MIC90): 4 µg/mL (≈ 4.35 µM) | MIC50 (MSSA; read-out: MIC50): 1 µg/mL (≈ 1.09 µM) | MIC90 (MSSA; read-out: MIC90): 2 µg/mL (≈ 2.17 µM) | MIC50 ([7]; read-out: MIC50): 1 µg/mL (≈ 1.09 µM) | MIC90 ([7]; read-out: MIC90): 4 µg/mL (≈ 4.35 µM) | MIC50 (MRSA; Staphylococcus aureus, MRSA, 42 clinical isolates, read-out: MIC50): 4 µg/mL (≈ 4.35 µM) | MIC90 (MRSA; Staphylococcus aureus, MRSA, 42 clinical isolates, read-out: MIC90): 8 µg/mL (≈ 8.7 µM) | times less active than coralmycin A as evidenced by the MIC90 (MRSA; against MRSA, CNS, and VRE): 8 to 16 times | MIC50 ([8]; read-out: MIC50): 1 µg/mL (≈ 1.09 µM) | MIC90 ([8]; read-out: MIC90): 16 µg/mL (≈ 17.4 µM) | time-kill activity (MRSA CCARM 3167 [9]; 1× MIC): bacteriostatic (considered bacteriostatic if the inoculum was reduced by 0–3 log CFU/mL) | time-kill activity (MRSA CCARM 3167 [9]; 2× and 4× MIC, 24 h): bactericidal (considered bactericidal if the original inoculum was reduced by 3 log CFU/mL (99.9%) at each concentration) | MIC50 (S. pneumoniae; read-out: MIC50): 0.5 µg/mL (≈ 0.544 µM) | MIC90 (S. pneumoniae; read-out: MIC90): 4 µg/mL (≈ 4.35 µM) | time-kill activity (S. aureus Giorgio [10]; 1× MIC): bacteriostatic (considered bacteriostatic if the inoculum was reduced by 0–3 log CFU/mL) | time-kill activity (S. aureus Giorgio [10]; 2× and 4× MIC, 24 h): bactericidal (considered bactericidal if the original inoculum was reduced by 3 log CFU/mL (99.9%) at each concentration) | MIC (MRSA CCARM 3167 [11]): 0.25 µg/mL (≈ 0.272 µM) | MIC (S. aureus Giorgio [12]): 0.06 µg/mL (≈ 0.0652 µM) | time-kill activity (S. pneumoniae ATCC49619 [13]; 1× MIC): bacteriostatic (considered bacteriostatic if the inoculum was reduced by 0–3 log CFU/mL) | time-kill activity (S. pneumoniae ATCC49619 [13]; 2× and 4× MIC, 24 h): bactericidal (considered bactericidal if the original inoculum was reduced by 3 log CFU/mL (99.9%) at each concentration) | MIC (VRE 3 [14]): 2 µg/mL (≈ 2.17 µM) | antibacterial effect in thigh infection model (S. aureus Giorgio [15]; 20 mg/kg bid): almost no antibacterial effect | antibacterial effect in thigh infection model (S. aureus Giorgio [15]; s.c. 4 and 20 mg/kg at 3 and 6 h after infection): almost no antibacterial effect | time-kill activity (VRE 3 [16]; 1× MIC): bacteriostatic (considered bacteriostatic if the inoculum was reduced by 0–3 log CFU/mL) | time-kill activity (VRE 3 [16]; 2× and 4× MIC, 24 h): bactericidal (considered bactericidal if the original inoculum was reduced by 3 log CFU/mL (99.9%) at each concentration) | half-life (in vivo; iv, 2 mg/kg): 2.16 ± 1.08 h | half-life (in vivo; sc, 20 mg/kg): 7.01 ± 1.22 h
